Results taken from patent publication US20260132132A1, “3A,4,5,6-TETRAHYDRO-1 H-PYRAZOLO[3,4-C]PYRIDIN-7(7AH)-ONE DERIVATIVES AS FACTOR XIIA INHIBITORS” (KALVISTA PHARMACEUTICALS LIMITED, priority 2022, published 2026).

Key:
FXa = FXa (Homo sapiens, UniProt P00742); test: Related protease inhibition: FXa, fluorogenic substrate; assay type: biochemical; conditions: fluorogenic substrate at Km, 25° C.; H1-H3 = % activity at 40 μM
Protocol: Human serine protease enzyme Plasma Kallikrein, KLK1, FXa, Plasmin, Thrombin and Trypsin were assayed for enzymatic activity using an appropriate fluorogenic substrate at Km concentration, FXIa at fixed substrate concentration of 100 μM and various concentrations of the test compound.

[1] = target: T1, Human Factor XIIa (hFXIIa) (Homo sapiens, UniProt P00748); test: Determination of Human Factor XIIa (hFXIIa) inhibition, fluorogenic substrate IC50 assay; assay type: biochemical; conditions: fluorogenic substrate H-DPro-Phe-Arg-AFC at Km, 25° C., read-out: Human FXIIa IC50
T1 construct: purchased Enzyme Research Laboratories
T1 sequence (P00748 373-615 limits assumed): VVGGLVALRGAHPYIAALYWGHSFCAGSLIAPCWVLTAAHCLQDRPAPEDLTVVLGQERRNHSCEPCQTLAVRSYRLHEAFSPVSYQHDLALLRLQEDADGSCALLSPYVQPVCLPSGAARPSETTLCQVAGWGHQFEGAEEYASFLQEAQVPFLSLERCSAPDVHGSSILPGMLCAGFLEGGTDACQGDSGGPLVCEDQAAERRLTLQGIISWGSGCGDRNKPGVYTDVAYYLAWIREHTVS
T1 sequence (P00748 20-372 partner limits assumed): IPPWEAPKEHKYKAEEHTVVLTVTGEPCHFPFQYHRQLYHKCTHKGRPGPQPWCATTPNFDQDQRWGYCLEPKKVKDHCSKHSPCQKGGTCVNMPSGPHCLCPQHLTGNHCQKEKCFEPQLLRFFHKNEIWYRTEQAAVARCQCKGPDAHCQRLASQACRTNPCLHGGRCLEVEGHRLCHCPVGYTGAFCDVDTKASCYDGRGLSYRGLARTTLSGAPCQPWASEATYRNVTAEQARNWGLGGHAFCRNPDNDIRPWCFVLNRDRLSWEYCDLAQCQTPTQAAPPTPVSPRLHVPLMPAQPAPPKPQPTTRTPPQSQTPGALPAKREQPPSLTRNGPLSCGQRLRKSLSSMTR
Protocol: Determination of Human Factor XIIa (hFXIIa) inhibition
The Km for the cleavage of the substrate by hFXIIa was determined by standard transformation of the Michaelis-Menten equation, with subsequent inhibition assays performed at substrate Km concentration.

Sequence of FXa (P00742 235-488 limits assumed): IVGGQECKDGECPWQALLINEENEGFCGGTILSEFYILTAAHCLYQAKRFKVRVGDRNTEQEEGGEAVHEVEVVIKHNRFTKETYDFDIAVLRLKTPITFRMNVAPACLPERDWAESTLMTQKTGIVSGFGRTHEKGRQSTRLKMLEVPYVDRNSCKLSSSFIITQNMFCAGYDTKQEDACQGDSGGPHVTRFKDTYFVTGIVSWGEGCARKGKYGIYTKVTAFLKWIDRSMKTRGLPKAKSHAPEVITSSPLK
Sequence of FXa (P00742 41-179 partner limits assumed): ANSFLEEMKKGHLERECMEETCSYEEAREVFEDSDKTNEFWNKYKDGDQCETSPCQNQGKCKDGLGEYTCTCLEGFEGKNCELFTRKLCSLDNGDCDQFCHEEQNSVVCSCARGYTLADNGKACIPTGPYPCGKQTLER

| Compound | IC50 (FXa) | IC50 [1] |
| --- | --- | --- |
| COc1ccnc(CNC(=O)c2nn(-c3cccc(Cl)c3)c3c2CCN(c2ccc4c(c2)CN(CCO)CC4)C3=O)c1 [Example 1230, 1-(3-chlorophenyl)-6-(2-(2-hydroxyethyl)-1,2,3,4-tetrahydroisoquinolin-7-yl)-N-((4-methoxypyridin-2-yl)methyl)-7-oxo-4,5,6,7-tetrahydro-1H-pyrazolo[3,4-c]pyridine-3-carboxamide] | 10000 to 40000 nM | 10 to 100 nM |
| CN1CCc2ccc(N3CCc4c(C(=O)NCc5cc(C6CC6)n[nH]5)nn(-c5cccc(Cl)c5)c4C3=O)cc2C1=O [Example 1231, 1-(3-chlorophenyl)-N-((3-cyclopropyl-1H-pyrazol-5-yl)methyl)-6-(2-methyl-1-oxo-1,2,3,4-tetrahydroisoquinolin-7-yl)-7-oxo-4,5,6,7-tetrahydro-1H-pyrazolo[3,4-c]pyridine-3-carboxamide] | > 40000 nM | 100 to 300 nM |
| O=C(O)c1nn(-c2cccc(Cl)c2)c2c1CCN(c1cccc(CN3CCCCC3)c1)C2=O [Example 1232, 1-(3-chlorophenyl)-7-oxo-6-(3-(piperidin-1-ylmethyl)phenyl)-4,5,6,7-tetrahydro-1H-pyrazolo[3,4-c]pyridine-3-carboxylic acid] | > 40000 nM | 1000 to 3000 nM |
| COc1cccnc1CNC(=O)c1nn(-c2cccc(Cl)c2)c2c1CCN(c1ccc3c(c1)C(=O)N(C)CC3)C2=O [Example 1233, 1-(3-chlorophenyl)-N-((3-methoxypyridin-2-yl)methyl)-6-(2-methyl-1-oxo-1,2,3,4-tetrahydroisoquinolin-7-yl)-7-oxo-4,5,6,7-tetrahydro-1H-pyrazolo[3,4-c]pyridine-3-carboxamide] | > 40000 nM | 100 to 300 nM |
| CCN1CCc2cc(F)c(N3CCc4c(C(=O)NCc5cc(C6CC6)n[nH]5)nn(-c5cccc(Cl)c5)c4C3=O)cc2C1 [Example 1234, 1-(3-chlorophenyl)-N-((3-cyclopropyl-1H-pyrazol-5-yl)methyl)-6-(2-ethyl-6-fluoro-1,2,3,4-tetrahydroisoquinolin-7-yl)-7-oxo-4,5,6,7-tetrahydro-1H-pyrazolo[3,4-c]pyridine-3-carboxamide] | 3000 to 10000 nM | 10 to 100 nM |
| COc1ccc(CNC(=O)c2nn(-c3cccc(Cl)c3)c3c2CCN(c2ccc4c(c2)C(=O)N(C)CC4)C3=O)cn1 [Example 1235, 1-(3-chlorophenyl)-N-((6-methoxypyridin-3-yl)methyl)-6-(2-methyl-1-oxo-1,2,3,4-tetrahydroisoquinolin-7-yl)-7-oxo-4,5,6,7-tetrahydro-1H-pyrazolo[3,4-c]pyridine-3-carboxamide] | > 40000 nM | 100 to 300 nM |
| Cc1ccncc1CNC(=O)c1nn(-c2cccc(Cl)c2)c2c1CCN(c1ccc3c(c1)C(=O)N(CCO)CC3)C2=O [Example 1236, 1-(3-chlorophenyl)-6-(2-(2-hydroxyethyl)-1-oxo-1,2,3,4-tetrahydroisoquinolin-7-yl)-N-((4-methylpyridin-3-yl)methyl)-7-oxo-4,5,6,7-tetrahydro-1H-pyrazolo[3,4-c]pyridine-3-carboxamide] | > 40000 nM | 10 to 100 nM |
| O=C(NCc1cc(C2CC2)n[nH]1)c1nn(-c2cccc(Cl)c2)c2c1CCN(c1cccc(CN3CCCCC3)c1)C2=O [Example 1237, 1-(3-chlorophenyl)-N-((3-cyclopropyl-1H-pyrazol-5-yl)methyl)-7-oxo-6-(3-(piperidin-1-ylmethyl)phenyl)-4,5,6,7-tetrahydro-1H-pyrazolo[3,4-c]pyridine-3-carboxamide] | > 40000 nM | 100 to 300 nM |
| Cc1cc(CNC(=O)c2nn(-c3cccc(Cl)c3)c3c2CCN(c2ccc4c(c2)C(=O)N(C)CCC4)C3=O)nn1C [Example 1238, 1-(3-Chlorophenyl)-N-[(1,5-dimethylpyrazol-3-yl)methyl]-6-(2-methyl-1-oxo-4,5-dihydro-3H-2-benzazepin-8-yl)-7-oxo-4,5-dihydropyrazolo[3,4-c]pyridine-3-carboxamide] | 3000 to 10000 nM | 100 to 300 nM |
| CN1CCCc2ccc(N3CCc4c(C(=O)NCC5CC5)nn(-c5cccc(Cl)c5)c4C3=O)cc2C1=O [Example 1239, 1-(3-chlorophenyl)-N-(cyclopropylmethyl)-6-(2-methyl-1-oxo-2,3,4,5-tetrahydro-1H-benzo[c]azepin-8-yl)-7-oxo-4,5,6,7-tetrahydro-1H-pyrazolo[3,4-c]pyridine-3-carboxamide] | 10000 to 40000 nM | 100 to 300 nM |
| CN1CCc2ccc(N3CCc4c(C(=O)NCc5cc[nH]n5)nn(-c5cccc(Cl)c5)c4C3=O)cc2C1=O [Example 1245, N-((1H-pyrazol-3-yl)methyl)-1-(3-chlorophenyl)-6-(2-methyl-1-oxo-1,2,3,4-tetrahydroisoquinolin-7-yl)-7-oxo-4,5,6,7-tetrahydro-1H-pyrazolo[3,4-c]pyridine-3-carboxamide] | > 40000 nM | 100 to 300 nM |
| Cc1nc(CNC(=O)c2nn(-c3cccc(Cl)c3)c3c2CCN(c2ccc4c(c2)C(=O)N(C)CC4)C3=O)n[nH]1 [Example 1247, 1-(3-chlorophenyl)-6-(2-methyl-1-oxo-1,2,3,4-tetrahydroisoquinolin-7-yl)-N-((5-methyl-1H-1,2,4-triazol-3-yl)methyl)-7-oxo-4,5,6,7-tetrahydro-1H-pyrazolo[3,4-c]pyridine-3-carboxamide] | > 40000 nM | 100 to 300 nM |
| Cc1c[nH]nc1CNC(=O)c1nn(-c2cccc(Cl)c2)c2c1CCN(c1ccc3c(c1)C(=O)N(C)CC3)C2=O [Example 1248, 1-(3-chlorophenyl)-6-(2-methyl-1-oxo-1,2,3,4-tetrahydroisoquinolin-7-yl)-N-((4-methyl-1H-pyrazol-3-yl)methyl)-7-oxo-4,5,6,7-tetrahydro-1H-pyrazolo[3,4-c]pyridine-3-carboxamide] | 10000 to 40000 nM | 100 to 300 nM |
| CN1CCc2ccc(N3CCc4c(C(=O)NCC5(CO)CC5)nn(-c5cccc(Cl)c5)c4C3=O)cc2C1=O [Example 1250, 1-(3-chlorophenyl)-N-((1-(hydroxymethyl)cyclopropyl)methyl)-6-(2-methyl-1-oxo-1,2,3,4-tetrahydroisoquinolin-7-yl)-7-oxo-4,5,6,7-tetrahydro-1H-pyrazolo[3,4-c]pyridine-3-carboxamide] | > 40000 nM | 300 to 1000 nM |
| CN1CCc2ccc(N3CCc4c(C(=O)NCC5(CO)COC5)nn(-c5cccc(Cl)c5)c4C3=O)cc2C1=O [Example 1252, 1-(3-chlorophenyl)-N-((3-(hydroxymethyl)oxetan-3-yl)methyl)-6-(2-methyl-1-oxo-1,2,3,4-tetrahydroisoquinolin-7-yl)-7-oxo-4,5,6,7-tetrahydro-1H-pyrazolo[3,4-c]pyridine-3-carboxamide] | > 40000 nM | 300 to 1000 nM |
| O=C(NCC1CC1)c1nn(-c2cccc(Cl)c2)c2c1CCN(c1ccc3c(c1)C(=O)N(CCF)CC3)C2=O [Example 1253, 1-(3-chlorophenyl)-N-(cyclopropylmethyl)-6-(2-(2-fluoroethyl)-1-oxo-1,2,3,4-tetrahydroisoquinolin-7-yl)-7-oxo-4,5,6,7-tetrahydro-1H-pyrazolo[3,4-c]pyridine-3-carboxamide] | > 40000 nM | 100 to 300 nM |
| Cc1cc(CNC(=O)c2nn(-c3cccc(Cl)c3)c3c2CCN(c2ccc4c(c2)C(=O)N(CCF)CC4)C3=O)nn1C [Example 1254, 1-(3-chlorophenyl)-N-((1,5-dimethyl-1H-pyrazol-3-yl)methyl)-6-(2-(2-fluoroethyl)-1-oxo-1,2,3,4-tetrahydroisoquinolin-7-yl)-7-oxo-4,5,6,7-tetrahydro-1H-pyrazolo[3,4-c]pyridine-3-carboxamide] | 10000 to 40000 nM | 10 to 100 nM |
| Cc1cc(C)c(CNC(=O)c2nn(-c3cccc(Cl)c3)c3c2CCN(c2ccc4c(c2)C(=O)N(CCO)CC4)C3=O)cn1 [Example 1256, 1-(3-chlorophenyl)-N-((4,6-dimethylpyridin-3-yl)methyl)-6-(2-(2-hydroxyethyl)-1-oxo-1,2,3,4-tetrahydroisoquinolin-7-yl)-7-oxo-4,5,6,7-tetrahydro-1H-pyrazolo[3,4-c]pyridine-3-carboxamide] | > 40000 nM | 10 to 100 nM |
| O=C(NCC1CC1)c1nn(-c2cccc(Cl)c2)c2c1CCN(c1ccc3c(c1)C(=O)N(CC1CCOC1)CC3)C2=O (centres unmarked) [Example 1257, 1-(3-chlorophenyl)-N-(cyclopropylmethyl)-7-oxo-6-(1-oxo-2-((tetrahydrofuran-3-yl)methyl)-1,2,3,4-tetrahydroisoquinolin-7-yl)-4,5,6,7-tetrahydro-1H-pyrazolo[3,4-c]pyridine-3-carboxamide] | > 40000 nM | 300 to 1000 nM |
